Source: publication PMC6009910, “Tertiary amine derivatives of chlorochalcone as acetylcholinesterase (AChE) and buthylcholinesterase (BuChE) inhibitors: the influence of chlorine, alkyl amine side chain and α,β-unsaturated ketone group” (Journal of Enzyme Inhibition and Medicinal Chemistry, 2016)
Values joined by “and” are separate entries in the source; they are usually repeats but may differ in a detail not shown here. Equal entries are not always repeated. “Also recorded” adds a separate entry of the source.

Key:
[1] = Log p measurement by shake flask method; type: physicochemical; details: octanol / PBS (pH =7.4), triplicate
Description: Log p, defined as the logarithm of octanol-water partition coefficient is an important parameter to evaluate the lipophilicify of compounds. It can be calculated by determining the concentration of compound in octanol phase and water phase until the partition equilibrium was completed. In present investigation, log p of compounds 4a∼4l was measured by the shake flask method with slight modification, and PBS (pH =7.4) was used as the water phase. The mobile phase was methanol: 0.1% triethylamine (TEA)/80:20 (v/v), at a flow rate of 1.0 mL.min^−1 through a C18 column ([…] ×4.6 mm, 5 µm) at 32 °C with detect wavelength 318 nm. Experiments were conducted in triplicate and log p values were calculated.

BuChE = molecular target: T1, BuChE (Rattus norvegicus, UniProt Q9JKC1); assay: BuChE inhibition assay (Ellman method); type: biochemical, Sprague–Dawley rat
T1 construct: The brain and serum of Sprague–Dawley rat was used as the resource of AChE and BuChE, respectively; from tissue; host or cells: Sprague-Dawley rat serum
T1 sequence (Q9JKC1 24-597): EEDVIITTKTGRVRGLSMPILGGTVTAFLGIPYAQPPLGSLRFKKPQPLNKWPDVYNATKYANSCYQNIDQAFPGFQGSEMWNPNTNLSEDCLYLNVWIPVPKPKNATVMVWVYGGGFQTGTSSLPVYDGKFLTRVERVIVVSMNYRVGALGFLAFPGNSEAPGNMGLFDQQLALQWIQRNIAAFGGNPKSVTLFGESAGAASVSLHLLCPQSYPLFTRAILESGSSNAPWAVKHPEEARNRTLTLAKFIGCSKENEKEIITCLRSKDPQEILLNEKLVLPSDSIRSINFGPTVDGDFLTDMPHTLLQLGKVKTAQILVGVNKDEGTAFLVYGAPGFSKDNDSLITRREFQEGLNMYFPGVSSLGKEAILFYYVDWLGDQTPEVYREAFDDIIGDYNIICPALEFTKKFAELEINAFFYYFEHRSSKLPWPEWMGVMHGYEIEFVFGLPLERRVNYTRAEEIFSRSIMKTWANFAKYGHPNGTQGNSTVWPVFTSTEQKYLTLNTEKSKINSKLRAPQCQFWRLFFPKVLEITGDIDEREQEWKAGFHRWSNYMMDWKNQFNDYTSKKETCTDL
Description: (§1) AChE/BuChE activity assays were conducted by Ellman method with light modification. The brain and serum of Sprague–Dawley rat was used as the resource of AChE and BuChE, respectively. Each compound was dissolved in Tween 80 and diluted with water to various concentrations immediately before use. The reaction mixture containing 40 µL AChE/BuChE, 100 µL acetylthiocholine iodide/S-Butyrylthiocholine iodide, 2.76 mL Na2HPO4/NaH2PO4 buffer (pH 8.0, 0.1 mol/L), and 100 µL different concentrations of test compounds were incubated at 30 °C for 25 min. Then the reaction was terminated via adding 100 µL 20% sodium dodecyl sulfate (SDS), then 100 µL 10 mmol/L 5, 5'-Dithiobis-(2-nitrobenzoic acid) (DTNB) was added to generate the yellow anion 5-thio-2-nitro-benzoic acid. The absorbance of each assay mixture was measured at 412 nm by UV spectroscopy. The IC50 values were calculated by Bliss method and expressed as mean ± SD of the replicates.

AChE [2] = molecular target: T2, AChE (Rattus norvegicus, UniProt P37136); assay: biochemical; type: biochemical; details: for IC50: rat brain AChE, means ± SD of three experiments; for Selectivity for AChE, IC50 (BuChE)/IC50 (AChE): ratio IC50 (BuChE)/IC50 (AChE)
T2 construct: The brain and serum of Sprague–Dawley rat was used as the resource of AChE and BuChE, respectively; from tissue; host or cells: Sprague-Dawley rat brain
T2 sequence (P37136 32-614): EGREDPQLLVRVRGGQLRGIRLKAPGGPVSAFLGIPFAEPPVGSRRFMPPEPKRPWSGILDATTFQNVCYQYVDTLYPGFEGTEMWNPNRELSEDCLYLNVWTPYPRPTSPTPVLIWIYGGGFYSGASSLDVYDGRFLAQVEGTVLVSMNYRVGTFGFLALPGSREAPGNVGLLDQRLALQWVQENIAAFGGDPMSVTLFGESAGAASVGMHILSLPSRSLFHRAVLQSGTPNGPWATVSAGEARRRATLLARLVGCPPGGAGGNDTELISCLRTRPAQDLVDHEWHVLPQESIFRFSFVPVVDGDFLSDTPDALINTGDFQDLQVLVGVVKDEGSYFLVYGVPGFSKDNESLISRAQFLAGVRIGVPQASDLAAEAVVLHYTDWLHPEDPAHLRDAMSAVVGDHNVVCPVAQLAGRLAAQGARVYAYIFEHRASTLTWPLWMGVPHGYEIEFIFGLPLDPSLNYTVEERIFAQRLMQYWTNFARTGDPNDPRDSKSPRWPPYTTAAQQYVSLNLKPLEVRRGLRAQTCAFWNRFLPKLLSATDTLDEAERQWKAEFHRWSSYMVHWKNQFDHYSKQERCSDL
Description: as §1

AChE [3] = molecular target: T2, AChE; assay: Kinetic studies of AChE inhibition (Lineweaver–Burk); type: biochemical
Description: as §1, with “replicates. Rivastigmine was used as the control drug.” for “replicates.”
Kinetic experiment was conducted by a reported method with some modifications. Compound 4l was added into the assay solution and pre-incubated with the enzyme at 30 °C, followed by the addition of 100-µL acetylthiocholine iodide including five concentrations. The assay solution contained 100 µL compound 4l, 100 µL DTNB, 2.76 mL 0.1 mol/L Na2HPO4/NaH2PO4 buffer (pH 8.0). Kinetic profile of AChE was determined by UV spectrophotometer at 412 nm. Additionally, the blank control experiment was conducted with the vehicle to replace compound 4l solution.

| Compound | logP [1] | IC50 (BuChE) [µM] | IC50 (AChE [2]) [µM] | Selectivity for AChE, IC50 (BuChE)/IC50 (AChE) (AChE [2]) | further results |
| --- | --- | --- | --- | --- | --- |
| CN(C)CCOc1ccc(C(=O)/C=C/c2ccccc2Cl)cc1 [Compound 4a, (E)-3–(2-chlorophenyl)-1–(4-(2-(dimethylamino)ethoxy)phenyl)prop-2-en-1-one] | 1.75 | 41.1 ± 2.31 | 2.11 ± 0.38 | 19.5 |  |
| CCN(CC)CCOc1ccc(C(=O)/C=C/c2ccc(Cl)cc2)cc1 [Compound 4f, (E)-3–(4-chlorophenyl)-1–(4-(2-(diethylamino)ethoxy)phenyl)prop-2-en-1-one] | 1.69 | 101 ± 17.2 | 3.78 ± 0.39 | 26.7 |  |
| CC(=O)N1N=C(c2ccc(OCCN3CCCC3)cc2)CC1c1ccccc1Cl (stereo not shown) [Compound 5b, 1–(5-(2-Chlorophenyl)-3–(4-(2-(pyrrolidin-1-yl)ethoxy)phenyl)-4,5-dihydro-1H-pyrazol-1-yl) ethan-1-one] |  | 29.9 ± 1.25 | 6.31 ± 0.16 | 4.74 |  |
| O=C(/C=C/c1ccc(Cl)cc1)c1ccc(O)cc1 [Compound 3c, 4'-Hydroxy-4-chlorochalcone] |  | > 500 | > 500 |  |  |
| O=C(/C=C/c1cccc(Cl)c1)c1ccc(O)cc1 [Compound 3b, 4'-Hydroxy-3-chlorochalcone] |  | > 500 | > 500 |  |  |
| O=C(/C=C/c1ccccc1Cl)c1ccc(OCCN2CCCCC2)cc1 [Compound 4g, (E)-3–(2-chlorophenyl)-1–(4-(2-(piperidin-1-yl)ethoxy)phenyl)prop-2-en-1-one] | 1.75 | 35.6 ± 7.31 | 1.8 ± 0.48 | 19.8 |  |
| CC(=O)N1N=C(c2ccc(OCCN3CCCC3)cc2)CC1c1ccc(Cl)cc1 (stereo not shown) [Compound 5d, 1–(5-(4-Chlorophenyl)-3–(4-(2-(pyrrolidin-1-yl)ethoxy)phenyl)-4,5-dihydro-1H-pyrazol-1-yl) ethan-1-one] |  | 108 ± 5.56 | 2.04 ± 0.26 | 52.96 |  |
| CCN(CC)CCOc1ccc(C(=O)/C=C/c2ccccc2Cl)cc1 [Compound 4d, (E)-3–(2-chlorophenyl)-1–(4-(2-(diethylamino)ethoxy)phenyl)prop-2-en-1-one] | 1.63 | 63.8 ± 9.21 | 5.42 ± 0.2 | 11.8 |  |
| CN(C)CCOc1ccc(C(=O)/C=C/c2ccc(Cl)cc2)cc1 [Compound 4c, (E)-3–(4-chlorophenyl)-1–(4-(2-(dimethylamino)ethoxy)phenyl)prop-2-en-1-one] | 1.61 | 43.6 ± 6.94 | 1.55 ± 0.16 | 28.1 |  |
| O=C(/C=C/c1cccc(Cl)c1)c1ccc(OCCN2CCCC2)cc1 [Compound 4k, (E)-3–(3-chlorophenyl)-1–(4-(2-(pyrrolidin-1-yl)ethoxy)phenyl)prop-2-en-1-one] | 1.81 | 31.1 ± 3.41 | 0.28 ± 0.05 | 110.9 |  |
| CC(=O)N1N=C(c2ccc(OCCN3CCCCC3)cc2)CC1c1ccc(Cl)cc1 (stereo not shown) [Compound 5a, 1–(5-(4-Chlorophenyl)-3–(4-(2-(piperidin-1-yl)ethoxy)phenyl)-4,5-dihydro-1H-pyrazol-1-yl) ethan-1-one] |  | 97.6 ± 3.78 | 5.94 ± 0.27 | 16.4 |  |
| CN(C)CCOc1ccc(C(=O)/C=C/c2cccc(Cl)c2)cc1 [Compound 4b, (E)-3–(3-chlorophenyl)-1–(4-(2-(dimethylamino)ethoxy)phenyl)prop-2-en-1-one] | 1.83 | 32.1 ± 7.16 | 3.76 ± 0.26 | 8.5 |  |
| CCN(CC)CCOc1ccc(C(=O)/C=C/c2cccc(Cl)c2)cc1 [Compound 4e, (E)-3–(3-chlorophenyl)-1–(4-(2-(diethylamino)ethoxy)phenyl)prop-2-en-1-one] | 1.62 | 80.2 ± 7.18 | 5.83 ± 0.42 | 13.8 |  |
| O=C(/C=C/c1ccc(Cl)cc1)c1ccc(OCCN2CCCCC2)cc1 [Compound 4i, (E)-3–(4-chlorophenyl)-1–(4-(2-(piperidin-1-yl)ethoxy)phenyl)prop-2-en-1-one] | 1.79 | 114 ± 26.1 | 0.91 ± 0.09 | 125.5 |  |
| O=C(/C=C/c1ccccc1Cl)c1ccc(O)cc1 [Compound 3a, 4'-Hydroxy-2-chlorochalcone] |  | > 500 | > 500 |  |  |
| O=C(/C=C/c1cccc(Cl)c1)c1ccc(OCCN2CCCCC2)cc1 [Compound 4h, (E)-3–(3-chlorophenyl)-1–(4-(2-(piperidin-1-yl)ethoxy)phenyl)prop-2-en-1-one] | 1.72 | 24.5 ± 6.14 | 1.31 ± 0.17 | 18.7 |  |
| O=C(/C=C/c1ccc(Cl)cc1)c1ccc(OCCN2CCCC2)cc1 [Compound 4l, (E)-3–(4-chlorophenyl)-1–(4-(2-(pyrrolidin-1-yl)ethoxy)phenyl)prop-2-en-1-one] | 1.83 | 113 ± 18.2 | 0.17 ± 0.06 | 667 and 667.2 | noncompetitive constant (Ki’) (AChE [3]; AChE, mixed-type inhibition): 2.95 µM; inhibition type (AChE [3]; Lineweaver–Burk analysis, Km increased and Vmax decreased with concentration): mixed-type inhibition; also recorded: mixed-type inhibitor; Ki’ (AChE [3]; Supplement Table 2): 2.95 µM; Vmax (AChE [3]; compound 4l at 0.22 µM): 0.0273 ΔAmin-1; Vmax (AChE [3]; compound 4l at 0.43 µM): 0.0263 ΔAmin-1; Vmax (AChE [3]; compound 4l at […]): 0.0230 ΔAmin-1; Ki (AChE [3]; read-out: competitive inhibition constant (Ki)): 0.38 µM |
| CC(=O)N1N=C(c2ccc(OCCN3CCCC3)cc2)CC1c1cccc(Cl)c1 (stereo not shown) [Compound 5c, 1–(5-(3-Chlorophenyl)-3–(4-(2-(pyrrolidin-1-yl)ethoxy)phenyl)-4,5-dihydro-1H-pyrazol-1-yl)ethan-1-one] |  | 27.6 ± 2.58 | 2.41 ± 0.34 | 11.5 |  |
| O=C(/C=C/c1ccccc1Cl)c1ccc(OCCN2CCCC2)cc1 [Compound 4j, (E)-3–(2-chlorophenyl)-1–(4-(2-(pyrrolidin-1-yl)ethoxy)phenyl)prop-2-en-1-one] | 1.85 | 32.1 ± 5.71 | 0.81 ± 0.03 | 39.6 |  |
